The experiment relates to TPM3-NTRK1-wt IC50 / primary target (e.g. CD74-ROS1-wt) IC50, Ba/F3 cells. Nature of the experiment: Cell assay TRKA selectivity (TRKA potency divided by primary target potency). The note with it: for TPM3-NTRK1-wt/CD74-ROS1-G2032R: TRKA selectivity ratio: TPM3-NTRK1-wt IC50 / CD74-ROS1-G2032R IC50, Ba/F3 cells; for TPM3-NTRK1-wt/CD74-ROS1-wt: TRKA selectivity ratio: TPM3-NTRK1-wt IC50 / CD74-ROS1-wt IC50, Ba/F3 cells; for TPM3-NTRK1-wt/EML4-ALK-L1196M-G1202R: TRKA selectivity ratio: TPM3-NTRK1-wt IC50 / EML4-ALK-L1196M-G1202R IC50, Ba/F3 cells; for TPM3-NTRK1-wt/EML4-ALK-wt: TRKA selectivity ratio: TPM3-NTRK1-wt IC50 / EML4-ALK-wt IC50, Ba/F3 cells. In kind it is cell-based. The procedure, abridged:
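Ratio of TRKA to primary-target cellular IC50 (e.g. TPM3-NTRK1-wt/CD74-ROS1-wt), grouped into bins A >30, B >10, C ≥1, D <1. Each IC50 came from engineered Ba/F3 fusion lines grown without IL-3, dosed for 72 h and read as CellTiter-Glo luminescence, with a four-parameter logistic fit.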

Consider `CCc1nn(CC)c2c1Cc1cn(C)nc1-c1ccc(F)cc1[C@@H](C)Oc1cc-2cnc1N` [Example 158, (19R)-3,5-diethyl-16-fluoro-10,19-dimethyl-20-oxa-3,4,10,11,23-pentaazapentacyclo[19.3.1.0^2,^6.0^8,^12.0^13,^18]pentacosa-1(24),2(6),4,8,11,13,15,17,21(25),22-decaen-22-amine], for which the TPM3-NTRK1-wt/CD74-ROS1-G2032R result is given as “A (bin A for very high selectivity, ratio>30-fold)”; the TPM3-NTRK1-wt/CD74-ROS1-wt result is “A (bin A for very high selectivity, ratio>30-fold)”; the TPM3-NTRK1-wt/EML4-ALK-L1196M-G1202R entry is “C (bin C for moderate selectivity, ratio≥1)”; the TPM3-NTRK1-wt/EML4-ALK-wt entry is “A (bin A for very high selectivity, ratio>30-fold)”.

In the case of `C[C@H]1Oc2cc(cnc2N)-c2c(cnn2CC2(C)CC2)Cc2cn(C)nc2-c2ccc(F)cc21` [Example 159, (19R)-16-fluoro-10,19-dimethyl-3-[(1-methylcyclopropyl)methyl]-20-oxa-3,4,10,11,23-pentaazapentacyclo[19.3.1.0^2,^6.0^8,^12.0^13,^18]pentacosa-1(24),2(6),4,8,11,13,15,17,21(25),22-decaen-22-amine], the TPM3-NTRK1-wt/CD74-ROS1-G2032R entry is listed as “A (bin A for very high selectivity, ratio>30-fold)”; the TPM3-NTRK1-wt/CD74-ROS1-wt entry is recorded as “A (bin A for very high selectivity, ratio>30-fold)”; the TPM3-NTRK1-wt/EML4-ALK-L1196M-G1202R result is given as “B (bin B for high selectivity, ratio>10-fold)”; the TPM3-NTRK1-wt/EML4-ALK-wt entry is recorded as “A (bin A for very high selectivity, ratio>30-fold)”.

`C[C@H]1Oc2cc(cnc2N)-c2c(cnn2CC2CC2)Cc2cn(C(F)F)nc2-c2ccc(F)cc21` [Example 160, (19R)-3-(cyclopropylmethyl)-10-(difluoromethyl)-16-fluoro-19-methyl-20-oxa-3,4,10,11,23-pentaazapentacyclo[19.3.1.0^2,^6.0^8,^12.0^13,^18]pentacosa-1(24),2(6),4,8,11,13,15,17,21(25),22-decaen-22-amine]: the TPM3-NTRK1-wt/CD74-ROS1-G2032R entry was “A (bin A for very high selectivity, ratio>30-fold)”; the TPM3-NTRK1-wt/CD74-ROS1-wt result is recorded as “A (bin A for very high selectivity, ratio>30-fold)”; the TPM3-NTRK1-wt/EML4-ALK-L1196M-G1202R entry is “A (bin A for very high selectivity, ratio>30-fold)”; the TPM3-NTRK1-wt/EML4-ALK-wt result was “A (bin A for very high selectivity, ratio>30-fold)”.

Turning to `CCn1ncc2c1-c1cnc(N)c(c1)O[C@H](C)c1cc(F)ccc1-c1onc(C)c1C2` [Example 161, (19R)-3-ethyl-16-fluoro-9,19-dimethyl-11,20-dioxa-3,4,10,23-tetraazapentacyclo[19.3.1.0^2,^6.0^8,^12.0^13,^18]pentacosa-1(24),2(6),4,8(12),9,13,15,17,21(25),22-decaen-22-amine], the TPM3-NTRK1-wt/CD74-ROS1-G2032R result is “C (bin C for moderate selectivity, ratio≥1)”; the TPM3-NTRK1-wt/CD74-ROS1-wt entry was “C (bin C for moderate selectivity, ratio≥1)”; the TPM3-NTRK1-wt/EML4-ALK-L1196M-G1202R result was “D (bin D for low selectivity, ratio<1)”; the TPM3-NTRK1-wt/EML4-ALK-wt entry is “C (bin C for moderate selectivity, ratio≥1)”.

Regarding `CCc1noc2c1-c1cnc(N)c(n1)O[C@H](C)c1cc(F)ccc1-c1nn(C)cc1C2` [Example 162, (19R)-3-ethyl-16-fluoro-10,19-dimethyl-5,20-dioxa-4,10,11,23,25-pentaazapentacyclo[19.3.1.0^2,^6.0^8,^12.0^13,^18]pentacosa-1(24),2(6),3,8,11,13,15,17,21(25),22-decaen-22-amine], the TPM3-NTRK1-wt/CD74-ROS1-G2032R entry was “B (bin B for high selectivity, ratio>10-fold)”; the TPM3-NTRK1-wt/CD74-ROS1-wt entry was “A (bin A for very high selectivity, ratio>30-fold)”; the TPM3-NTRK1-wt/EML4-ALK-L1196M-G1202R entry is given as “C (bin C for moderate selectivity, ratio≥1)”; the TPM3-NTRK1-wt/EML4-ALK-wt entry is listed as “A (bin A for very high selectivity, ratio>30-fold)”.

Turning to `CCn1ncc2c1-c1cnc(N)c(n1)OC(C)c1cc(F)ccc1-c1nccn1C2` (stereo not drawn) [Example 163, 3-ethyl-16-fluoro-19-methyl-20-oxa-3,4,8,11,23,25-hexaazapentacyclo[19.3.1.0^2,^6.0^8,^12.0^13,^18]pentacosa-1(24),2(6),4,9,11,13,15,17,21(25),22-decaen-22-amine], the TPM3-NTRK1-wt/CD74-ROS1-G2032R entry is listed as “A (bin A for very high selectivity, ratio>30-fold)”; the TPM3-NTRK1-wt/CD74-ROS1-wt result is “A (bin A for very high selectivity, ratio>30-fold)”; the TPM3-NTRK1-wt/EML4-ALK-L1196M-G1202R result is “C (bin C for moderate selectivity, ratio≥1)”; the TPM3-NTRK1-wt/EML4-ALK-wt result is given as “A (bin A for very high selectivity, ratio>30-fold)”.

In the case of `CCn1ncc2c1-c1cnc(N)c(n1)OC(C)c1cc(F)ccc1-c1c(cnn1C)C2` (stereo not drawn) [Example 164, 3-ethyl-16-fluoro-11,19-dimethyl-20-oxa-3,4,10,11,23,25-hexaazapentacyclo[19.3.1.0^2,^6.0^8,^12.0^13,^18]pentacosa-1(24),2(6),4,8(12),9,13,15,17,21(25),22-decaen-22-amine], the TPM3-NTRK1-wt/CD74-ROS1-G2032R entry was “A (bin A for very high selectivity, ratio>30-fold)”; the TPM3-NTRK1-wt/EML4-ALK-L1196M-G1202R entry is recorded as “C (bin C for moderate selectivity, ratio≥1)”; the TPM3-NTRK1-wt/EML4-ALK-wt entry is “B (bin B for high selectivity, ratio>10-fold)”.

As to `CCn1ncc2c1-c1ccc(F)cc1C(C)Oc1nc(cnc1N)-c1c(cnn1C)C2` (stereo not drawn) [Example 165, 11-ethyl-16-fluoro-3,19-dimethyl-20-oxa-3,4,10,11,23,25-hexaazapentacyclo[19.3.1.0^2,^6.0^8,^12.0^13,^18]pentacosa-1(24),2(6),4,8(12),9,13,15,17,21(25),22-decaen-22-amine], the TPM3-NTRK1-wt/CD74-ROS1-G2032R result is given as “C (bin C for moderate selectivity, ratio≥1)”; the TPM3-NTRK1-wt/CD74-ROS1-wt result is “B (bin B for high selectivity, ratio>10-fold)”; the TPM3-NTRK1-wt/EML4-ALK-L1196M-G1202R result is “D (bin D for low selectivity, ratio<1)”; the TPM3-NTRK1-wt/EML4-ALK-wt result is given as “C (bin C for moderate selectivity, ratio≥1)”.

On to `CC1Oc2cc(cnc2N)-c2c(n[nH]c2C#N)Cc2cnn(C)c2-c2ccc(F)cc21` (stereo not drawn) [Example 168, 22-amino-16-fluoro-11,19-dimethyl-20-oxa-4,5,10,11,23-pentaazapentacyclo[19.3.1.0^2,^6.0^8,^12.0^13,^18]pentacosa-1(24),2,5,8(12),9,13,15,17,21(25),22-decaene-3-carbonitrile], for which the TPM3-NTRK1-wt/CD74-ROS1-G2032R entry is listed as “A (bin A for very high selectivity, ratio>30-fold)”; the TPM3-NTRK1-wt/CD74-ROS1-wt result is “A (bin A for very high selectivity, ratio>30-fold)”; the TPM3-NTRK1-wt/EML4-ALK-L1196M-G1202R result is on record as “B (bin B for high selectivity, ratio>10-fold)”; the TPM3-NTRK1-wt/EML4-ALK-wt result was “A (bin A for very high selectivity, ratio>30-fold)”.

In the case of `C[C@H]1Oc2cc(cnc2N)-c2c(nn(C)c2C#N)Cc2ccnn2-c2ccc(F)cc21` [Example 169, (19R)-22-amino-16-fluoro-4,19-dimethyl-20-oxa-4,5,11,12,23-pentaazapentacyclo[19.3.1.0^2,^6.0^8,^12.0^13,^18]pentacosa-1(24),2,5,8,10,13,15,17,21(25),22-decaene-3-carbonitrile], the TPM3-NTRK1-wt/CD74-ROS1-G2032R entry is reported as “C (bin C for moderate selectivity, ratio≥1)”; the TPM3-NTRK1-wt/CD74-ROS1-wt result is reported as “A (bin A for very high selectivity, ratio>30-fold)”; the TPM3-NTRK1-wt/EML4-ALK-L1196M-G1202R entry is listed as “D (bin D for low selectivity, ratio<1)”; the TPM3-NTRK1-wt/EML4-ALK-wt result is given as “A (bin A for very high selectivity, ratio>30-fold)”.

Source of the values: patent US11667649B2, “Heteroaromatic macrocyclic ether chemotherapeutic agents” (Nuvalent, Inc., priority 2020, dated 2023).
